The record followed here is patent US6562828B1, “Amidine compounds” (Japan Tobacco Inc., priority 1998, dated 2003).

Assay [1] has as its system normal plasma. In words: Determination of prothrombin time (PT), mouse plasma. Format: biochemical. As for the experimental part:
(§1) Determination of prothrombin time (PT)
(§2) Blood was taken from mouse, rat, crab-eating monkey and healthy human volunteers, and citric acid was added. The blood was centrifuged at 4° C. and 2000 G for 15 min to obtain normal plasma of various animals.
(§3) Purified water (5 μl) containing various concentrations of test compound was added to plasma (45 μl) and the resultant mixtures were used as samples. […] (Baxter) was prepared and heated at […] for 5 min, and a sample (50 μl) was admixed with the thrombin reagent (100 μl). The time (PT) until precipitation of fibrin was measured. The drug concentration that doubled the PT hours of the drug untreated group was calculated and taken as CT2.

The subject of assay [2] is decrease of platelets and formation of FDP by thromboplastin. In words: Blood coagulation model in rat (thromboplastin). Format: in vivo. To be noted: i.v. 10 min before thromboplastin, mean ± S.D, n = 3; for PLT value: counted 10 min later; for FDP value: measured 30 min later. As for the experimental part:
Blood Coagulation Model in Rat
Intravenous administration of thromboplastin (Sigma) to rat promotes coagulation system, which in turn decreases platelets and increases fibrin degradation product (FDP). Thus, the test compound was intravenously administered 10 min before thromboplastin administration and the inhibitory effects of the test compound on the decrease of platelets and the formation of FDP by thromboplastin were studied. The thromboplastin administered had such concentration as to form clots within 20 seconds from the addition of one plasma dose to two thromboplastin doses and was administered in 1 ml/kg dose. Platelets were counted (PLT value) 10 min later on a blood cell counter sysmex F-800 [Dade International Inc. (USA)], and FDP was measured 30 min later using FDP latex reagent for serum [Teikoku Hormone Mfg. Co., Ltd. (Tokyo, Japan)]. In every Example, the PLT value of the thromboplastin untreated group was (106±13)×10^4 and the FDP value of this group was 0±0 μg/ml.

For assay [3], the system named is normal plasma. Briefly: Determination of prothrombin time (PT), human plasma. Format: biochemical. As for the experimental part: as §1, §2, §3
The test system of assay [4] is normal plasma. In words: Determination of prothrombin time (PT), crab-eating monkey plasma. Format: biochemical. How it is done:
as §1, §2, §3

For assay [5], the target named is T1, Human FXa (Homo sapiens, UniProt P00742).
T1 construct: Human FXa [Enzyme research Laboratories (USA)] enzyme; purchased Enzyme Research Laboratories (USA)
In words: Oral administration test in mouse, human FXa inhibitory activity in serum. Format: in vivo. To be noted: ICR mice, mean ± S.D., n = 3. How it is done: (§4) Human FXa inhibitory activity was measured as follows. Human FXa [Enzyme research Laboratories (USA)] enzyme (40 μl, 0.5 U/ml) and a 4-fold diluted plasma sample (40 μl) were incubated in 0.1M Tris-0.2M NaCl buffer (pH 8.4) (40 μl) at 37° C. for 10 min. A synthetic substrate S-2222 (Daiichi Pure Chemical (Tokyo, Japan), 40 μl) adjusted to 0.8 mM was added and the mixture was incubated at 37° C. for 5 min. The reaction was stopped by addition of 60% acetic acid (40 μl) and absorbance at 405 nm was measured by Model 3550 (BIO-RAD). For the control, serum or plasma obtained prior to blood sampling was used for measurement. Human FXa inhibitory activity was calculated as inhibition percentage (%) against control.
Oral Administration Tests in Mouse
A test compound dissolved in distilled water was orally administered to ICR mice (body weight 20-30 g, 4-6 weeks old) and the activity of the test compound was evaluated based on the human FXa inhibitory activity in serum as an indicator.
At 30, 60, 120, 180 min from the oral administration, blood was taken from the eye ground using a hematocrit tube. The blood was centrifuged at 9000 G for 5 min and the obtained serum was used for the determination. Human FXa inhibitory activity was determined in the same manner as in the test by intravenous administration.

Assay [6] concerns normal plasma. Briefly: Determination of prothrombin time (PT), rat plasma. Format: biochemical. As for the experimental part:
as §1, §2, §3

Assay [7] addresses T1, Human FXa. Briefly: Intravenous administration test in mouse, human FXa inhibitory activity in serum. Format: in vivo. The following applies: ICR mice, i.v., mean ± S.D., n = 3. As for the experimental part:
Intravenous Administration Tests in Mouse
A test compound dissolved in physiological saline was intravenously administered to ICR mice (body weight 20-30 g, 4-6 weeks old) and the activity of the test compound was evaluated based on the human FXa inhibitory activity in serum as an indicator.
At 10, 30, 60, 120 min from the intravenous administration, blood was taken from the eye ground using a hematocrit tube. The blood was centrifuged at 9000 G for 5 min and the obtained serum was used for the determination.
as §4

Assay [8] addresses T2, Human FIIa (Homo sapiens, UniProt P00734).
T2 construct: purchased Sigma
Briefly: Determination of anti-factor IIa (FIIa) activity, synthetic substrate S-2238. Format: biochemical. To be noted: S-2238, 37° C., pH 8.4, read-out: Experimental Example 2: anti-FIIa activity, IC50.

The target of assay [9] is T1, Human FXa. Briefly: Oral administration test in monkey, human FXa inhibitory activity in plasma. Format: in vivo. To be noted: crab-eating monkey, mean ± S.D., n = 3. As for the experimental part:
as §4
Oral Administration Tests in Monkey
A test compound dissolved in distilled water was orally administered to monkey (carb-eating monkey, body weight 3.5-4.5 kg) and the activity of the test compound was evaluated based on the human FXa inhibitory activity in plasma as an indicator.
At 30, 60, 120, 240, 480 min from the oral administration, blood was taken from the saphenous vein with the passage of time and the blood was centrifuged at 2000 G for 10 min. The obtained citric acid plasma was used for the determination. Human FXa inhibitory activity was determined in the same manner as in the test by intravenous administration.

The target of assay [10] is T1, Human FXa. In words: Intravenous administration test in monkey, human FXa inhibitory activity in plasma. Format: in vivo. To be noted: crab-eating monkey, i.v., mean ± S.D., n = 3. How it is done:
as §4
Intravenous Administration Tests in Monkey
A test compound dissolved in physiological saline was intravenously administered to monkey (crab-eating monkey, body weight 3.5-4.5 kg) and the activity of the test compound was evaluated based on the human FXa inhibitory activity in plasma as an indicator.
At 10, 30, 60, 120, 180 min from the intravenous administration, blood was taken from the saphenous vein with the passage of time and the blood was centrifuged at 2000 G for 10 min. The obtained citric acid plasma was used for the determination. Human FXa inhibitory activity was determined in the same manner as in the test using mouse.

Where a name gives a salt, the structure may show the parent alone.

T1 sequence (P00742 235-488 limits assumed): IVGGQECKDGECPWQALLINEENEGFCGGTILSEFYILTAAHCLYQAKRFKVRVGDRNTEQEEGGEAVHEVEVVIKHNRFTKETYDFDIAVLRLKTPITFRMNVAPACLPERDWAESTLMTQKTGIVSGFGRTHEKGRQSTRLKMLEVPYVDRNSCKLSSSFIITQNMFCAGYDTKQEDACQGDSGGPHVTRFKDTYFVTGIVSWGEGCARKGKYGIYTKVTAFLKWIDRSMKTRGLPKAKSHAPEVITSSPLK
T1 sequence (P00742 41-179 limits assumed): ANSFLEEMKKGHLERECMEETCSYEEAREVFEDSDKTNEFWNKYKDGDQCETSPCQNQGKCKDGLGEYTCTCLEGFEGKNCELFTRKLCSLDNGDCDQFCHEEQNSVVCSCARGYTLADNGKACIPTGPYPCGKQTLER

Regarding `CC(=N)N1CC[C@H](Oc2ccc([C@H](Cc3ccc4ccc(C(=N)N)cc4c3)C(=O)O)cc2)C1` [Comparative Example 1, (2S)-2-[4-[(3S)-1-acetimidoylpyrrolidin-3-yloxy]phenyl]-3-[7-amidinonaphthalen-2-yl]propionic acid hydrochloride pentahydrate, reference compound], the “CT2 (drug concentration that doubled the PT)” value (from here on “CT2”) in assay [1] was 10 µM; in assay [3], 2 µM; in [4] it was 4 µM; in assay [6], 10 µM. For the same molecule, the PLT value in assay [2] (dose 0.03 mg/kg) is recorded as 41 ± 9 ×10^4 blood platelet/μl; in assay [2] (dose 0.1 mg/kg) it was 67 ± 16 ×10^4 blood platelet/μl; in assay [2] (dose 0.3 mg/kg), 100 ± 5 ×10^4 blood platelet/μl. Besides, the FDP value in [2] (dose 0.03 mg/kg) amounted to 9 ± 2 µg/mL; in [2] (dose 0.1 mg/kg), 3 ± 2 µg/mL; in [2] (dose 0.3 mg/kg), 1 ± 1 µg/mL. Further, the inhibition at 10 mg/kg stood at 11 ± 4% in assay [5] (30 minutes), 6 ± 4% in [5] (60 minutes), 6 ± 4% in assay [5] (120 minutes) and 6 ± 4% in [5] (180 minutes). For the same molecule, the inhibition at 1 mg/kg came to 43 ± 3% in assay [7] (10 minutes), 14 ± 2% in assay [7] (30 minutes), 0% in [7] (60 minutes) and 1 ± 2% in assay [7] (120 minutes).
As to `N=C(N)N1CCc2ccc(OCC3(C(=O)O)CCN(c4ccncc4)CC3)cc2C1` [Example 7, 4-(2-Amidino-1,2,3,4-tetrahydroisoquinolin-7-yloxymethyl)-1-(pyridin-4-yl)piperidine-4-carboxylic Acid Dihydrochloride], the “CT2” value in [1] amounted to 10 µM; in [3] it was 0.5 µM; in assay [6] it was 30 µM. Further, the PLT value is 66 ± 21 ×10^4 blood platelet/μl in [2] (dose 0.1 mg/kg), 72 ± 10 ×10^4 blood platelet/μl in assay [2] (dose 0.3 mg/kg) and 96 ± 18 ×10^4 blood platelet/μl in assay [2] (dose 1 mg/kg). For the same molecule, the FDP value amounted to 7 ± 3 µg/mL in assay [2] (dose 0.1 mg/kg), 4 ± 1 µg/mL in assay [2] (dose 0.3 mg/kg) and 0 ± 0 µg/mL in assay [2] (dose 1 mg/kg). Moreover, the inhibition at 10 mg/kg in assay [5] (30 minutes) came out at 48 ± 7%; in [5] (60 minutes), 40 ± 9%; in [5] (120 minutes), 26 ± 7%; in assay [5] (180 minutes) it was 18 ± 9%. Also, in assay [8], the IC50 was over 10 µM. In addition, the inhibition at 1 mg/kg in assay [7] (10 minutes) stood at 64 ± 2%; in assay [7] (30 minutes), 54 ± 1%; in assay [7] (60 minutes), 46 ± 4%; in assay [7] (120 minutes), 30 ± 5%. Also, the inhibition at 3 mg/kg came to 82 ± 1% in [7] (10 minutes), 78 ± 1% in [7] (30 minutes), 72 ± 2% in assay [7] (60 minutes) and 59 ± 5% in [7] (120 minutes).
Consider `N=C(N)N1CCc2ccc(OCC3(C(=O)O)CCN(c4ccncc4)CC3)cc2C1` [Example 9, 4-(2-Amidino-1,2,3,4-tetrahydroisoquinolin-7-yloxymethyl)-1-(pyridin-4-yl)piperidine-4-carboxylic Acid Hydrochloride], for which the inhibition at 10 mg/kg in assay [9] (30 minutes) turned out to be 28 ± 33%; in [9] (60 minutes), 37 ± 27%; in assay [9] (120 minutes), 46 ± 20%; in assay [9] (240 minutes) it was 49 ± 9%; in assay [9] (480 minutes) it was 23 ± 11%. Besides, the inhibition at 1 mg/kg in assay [10] (10 minutes) is 82 ± 1%; in [10] (30 minutes), 72 ± 2%; in assay [10] (60 minutes) it was 58 ± 4%; in assay [10] (120 minutes), 41 ± 3%; in assay [10] (180 minutes), 29 ± 2%.
With `N=C(N)N1CCc2ccc(OCC3(C(=O)O)CCN(c4ccncc4)CC3)cc2C1` [Example 67, 4-(2-Amidino-1,2,3,4-tetrahydroisoquinolin-7-yloxymethyl)-1-(pyridin-4-yl)piperidine-4-carboxylic Acid Methanesulfonate], the “CT2” value in [4] turned out to be 5 µM.
